Data reported in the NIST ThermoML archive (doi:10.1016/j.jct.2017.03.034).
Numbers after ± are expanded uncertainties.

Assay: molar heat capacity at constant pressure
Settings: Liquid, Large sample (1 g) DSC

CCCCCCCCCC [decane]
molar heat capacity at constant pressure [J/K/mol]
Settings | 120 kPa | 10170 kPa
323.15 K | 326.25 ± 5.1 | 322.98 ± 5
328.15 K | 328.24 ± 5.1 | 325.68 ± 5
333.15 K | 330.52 ± 5.1 | 328.39 ± 5.1
338.15 K | 333.22 ± 5.1 | 330.95 ± 5.1
343.15 K | 336.21 ± 5.3 | 333.65 ± 5.1
348.15 K | 339.06 ± 5.3 | 336.35 ± 5.3
353.15 K | 341.9 ± 5.3 | 339.06 ± 5.3
358.15 K | 344.46 ± 5.4 | 342.05 ± 5.3
363.15 K | 346.88 ± 5.4 | 344.61 ± 5.4
368.15 K | 349.73 ± 5.4 | 347.31 ± 5.4
373.15 K | 352.72 ± 5.4 | 350.3 ± 5.4
378.15 K | 355.56 ± 5.5 | 353 ± 5.4
383.15 K | 358.55 ± 5.5 | 355.7 ± 5.5
388.15 K | 361.68 ± 5.5 | 358.41 ± 5.5
393.15 K | 364.81 ± 5.7 | 361.4 ± 5.5
398.15 K | 367.8 ± 5.7 | 364.24 ± 5.7
403.15 K | 371.21 ± 5.7 | 367.09 ± 5.7
408.15 K | – | 370.07 ± 5.7
413.15 K | – | 372.78 ± 5.8
418.15 K | – | 375.77 ± 5.8
423.15 K | – | 379.32 ± 5.8
428.15 K | – | 382.6 ± 6

CCCCCCCCCCCC [dodecane]
molar heat capacity at constant pressure [J/K/mol]
Settings | 100 kPa | 10180 kPa
323.15 K | 386.32 ± 6 | 385.13 ± 6
328.15 K | 389.56 ± 6 | 388.02 ± 6
333.15 K | 392.79 ± 6.1 | 391.26 ± 6.1
338.15 K | 395.86 ± 6.1 | 394.33 ± 6.1
343.15 K | 399.09 ± 6.1 | 397.39 ± 6.1
348.15 K | 402.33 ± 6.3 | 400.46 ± 6.1
353.15 K | 405.57 ± 6.3 | 403.52 ± 6.3
358.15 K | 408.8 ± 6.3 | 406.93 ± 6.3
363.15 K | 412.04 ± 6.5 | 410 ± 6.3
368.15 K | 415.28 ± 6.5 | 413.23 ± 6.5
373.15 K | 418.85 ± 6.5 | 416.13 ± 6.5
378.15 K | 422.09 ± 6.5 | 419.36 ± 6.5
383.15 K | 425.5 ± 6.6 | 422.6 ± 6.5
388.15 K | 428.73 ± 6.6 | 426.01 ± 6.6
393.15 K | 432.31 ± 6.6 | 429.07 ± 6.6
398.15 K | 435.38 ± 6.8 | 433.16 ± 6.6
403.15 K | 438.78 ± 6.8 | 435.89 ± 6.8
408.15 K | 442.53 ± 6.8 | 438.78 ± 6.8
413.15 K | 445.77 ± 7 | 441.68 ± 6.8
418.15 K | 449.34 ± 7 | 444.06 ± 6.8
423.15 K | 452.92 ± 7 | 447.64 ± 7
428.15 K | 456.5 ± 7.2 | 450.88 ± 7
433.15 K | 460.59 ± 7.2 | 454.28 ± 7
438.15 K | 465.35 ± 7.2 | 458.2 ± 7.2
443.15 K | – | 462.12 ± 7.2
448.15 K | – | 465.7 ± 7.2
453.15 K | – | 469.95 ± 7.3

CCCCCCCCCCCCCCCC [hexadecane]
molar heat capacity at constant pressure [J/K/mol]
Settings | 130 kPa | 10090 kPa
323.15 K | 513.57 ± 7.9 | 512.21 ± 7.9
328.15 K | 517.19 ± 7.9 | 515.83 ± 7.9
333.15 K | 520.81 ± 8.2 | 519.46 ± 8.2
338.15 K | 524.66 ± 8.2 | 523.31 ± 8.2
343.15 K | 528.51 ± 8.2 | 526.48 ± 8.2
348.15 K | 532.82 ± 8.2 | 530.1 ± 8.2
353.15 K | 536.44 ± 8.4 | 534.4 ± 8.4
358.15 K | 540.74 ± 8.4 | 538.48 ± 8.4
363.15 K | 544.59 ± 8.4 | 542.1 ± 8.4
368.15 K | 548.67 ± 8.6 | 546.4 ± 8.4
373.15 K | 553.2 ± 8.6 | 550.7 ± 8.6
378.15 K | 557.27 ± 8.6 | 554.55 ± 8.6
383.15 K | 561.57 ± 8.6 | 558.86 ± 8.6
388.15 K | 565.65 ± 8.8 | 563.16 ± 8.8
393.15 K | 569.73 ± 8.8 | 567.24 ± 8.8
398.15 K | 574.03 ± 8.8 | 571.31 ± 8.8
403.15 K | 578.56 ± 9.1 | 575.61 ± 8.8
408.15 K | 583.09 ± 9.1 | 579.92 ± 9.1
413.15 K | 586.94 ± 9.1 | 584.44 ± 9.1
418.15 K | 591.46 ± 9.1 | 588.97 ± 9.1
423.15 K | 595.77 ± 9.3 | 593.05 ± 9.3
428.15 K | 599.62 ± 9.3 | 596.45 ± 9.3
433.15 K | 603.92 ± 9.3 | 600.3 ± 9.3
438.15 K | 608.67 ± 9.5 | 604.6 ± 9.3
443.15 K | 613.2 ± 9.5 | 609.35 ± 9.5
448.15 K | 617.28 ± 9.5 | 613.66 ± 9.5
453.15 K | 622.26 ± 9.7 | 617.05 ± 9.5
458.15 K | – | 621.35 ± 9.7
463.15 K | – | 625.43 ± 9.7
468.15 K | – | 630.19 ± 9.7
473.15 K | – | 634.94 ± 9.7

CCCCCC [hexane]
molar heat capacity at constant pressure [J/K/mol]
Settings | 323.15 K | 328.15 K | 333.15 K | 338.15 K | 343.15 K | 348.15 K | 353.15 K | 358.15 K | 363.15 K | 368.15 K
140 kPa | 203.63 ± 3.2 | 205.7 ± 3.2 | 207.85 ± 3.2 | – | – | – | – | – | – | –
10090 kPa | 200.62 ± 3.1 | 202.43 ± 3.1 | 204.49 ± 3.2 | 206.13 ± 3.2 | 208.11 ± 3.2 | 210.1 ± 3.3 | 211.91 ± 3.3 | 214.15 ± 3.4 | 216.04 ± 3.4 | 218.37 ± 3.4

CCCCCCCC [octane]
molar heat capacity at constant pressure [J/K/mol]
Settings | 100 kPa | 10130 kPa
323.15 K | 263.3 ± 4.1 | 260.9 ± 4
328.15 K | 265.7 ± 4.1 | 263.18 ± 4.1
333.15 K | 267.98 ± 4.1 | 265.58 ± 4.1
338.15 K | 270.38 ± 4.2 | 267.75 ± 4.1
343.15 K | 272.66 ± 4.2 | 270.04 ± 4.2
348.15 K | 275.18 ± 4.2 | 272.32 ± 4.2
353.15 K | 277.58 ± 4.3 | 274.49 ± 4.2
358.15 K | 280.09 ± 4.3 | 277 ± 4.3
363.15 K | 282.6 ± 4.3 | 279.17 ± 4.3
368.15 K | 285.11 ± 4.5 | 281.57 ± 4.3
373.15 K | 287.86 ± 4.5 | 283.97 ± 4.5
378.15 K | 290.37 ± 4.5 | 286.49 ± 4.5
383.15 K | 293.45 ± 4.6 | 288.88 ± 4.5
388.15 K | – | 290.94 ± 4.5
393.15 K | – | 292.88 ± 4.6
398.15 K | – | 295.97 ± 4.6

CCCCCCCCCCCCCC [tetradecane]
molar heat capacity at constant pressure [J/K/mol]
Settings | 120 kPa | 10120 kPa
323.15 K | 449.55 ± 6.9 | 447.76 ± 6.9
328.15 K | 452.72 ± 6.9 | 451.13 ± 6.9
333.15 K | 456.09 ± 7.1 | 454.51 ± 7.1
338.15 K | 459.47 ± 7.1 | 457.88 ± 7.1
343.15 K | 463.04 ± 7.1 | 461.25 ± 7.1
348.15 K | 466.61 ± 7.1 | 464.82 ± 7.1
353.15 K | 470.38 ± 7.3 | 468.2 ± 7.3
358.15 K | 474.15 ± 7.3 | 471.97 ± 7.3
363.15 K | 477.72 ± 7.3 | 475.54 ± 7.3
368.15 K | 481.49 ± 7.5 | 478.91 ± 7.3
373.15 K | 485.26 ± 7.5 | 483.07 ± 7.5
378.15 K | 489.03 ± 7.5 | 486.45 ± 7.5
383.15 K | 492.8 ± 7.7 | 489.82 ± 7.5
388.15 K | 496.76 ± 7.7 | 493.19 ± 7.7
393.15 K | 500.14 ± 7.7 | 497.16 ± 7.7
398.15 K | 504.5 ± 7.7 | 500.73 ± 7.7
403.15 K | 508.27 ± 7.9 | 503.71 ± 7.7
408.15 K | 512.44 ± 7.9 | 508.47 ± 7.9
413.15 K | 515.81 ± 7.9 | 511.64 ± 7.9
418.15 K | 519.58 ± 8.1 | 515.41 ± 7.9
423.15 K | 523.35 ± 8.1 | 518.78 ± 8.1
428.15 K | 527.12 ± 8.1 | 522.16 ± 8.1
433.15 K | 530.89 ± 8.1 | 525.93 ± 8.1
438.15 K | 535.25 ± 8.3 | 529.3 ± 8.1
443.15 K | 539.81 ± 8.3 | 533.47 ± 8.3
448.15 K | 543.58 ± 8.3 | 537.63 ± 8.3
453.15 K | 547.95 ± 8.5 | 541.6 ± 8.3
458.15 K | 554.1 ± 8.5 | 545.77 ± 8.5
463.15 K | 559.65 ± 8.7 | 550.33 ± 8.5
468.15 K | – | 553.9 ± 8.5
473.15 K | – | 558.07 ± 8.7
478.15 K | – | 562.83 ± 8.7
483.15 K | – | 566.79 ± 8.7
